Measurements taken from PubChem BioAssay (NCI).
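The concentration for 50% growth inhibition is given as GI50. TGI: concentration producing complete growth inhibition.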

Experiments:
Assay in all cases: inhibition of tumour cell growth, NCI panel, 384-well format
[1] = tested on: 786-0 renal
[2] = tested on: OVCAR-8 ovarian
[3] = tested on: MCF7 breast
[4] = tested on: SR leukemia
[5] = tested on: DU-145 prostate
[6] = tested on: KM12 colon
[7] = tested on: NCI/ADR-RES ovarian
[8] = tested on: RXF 393 renal
[9] = tested on: HOP-62 NSCLC
[10] = tested on: MOLT-4 leukemia
[11] = tested on: SK-MEL-5 melanoma
[12] = tested on: NCI-H226 lung
[13] = tested on: MDA-MB-468 breast
[14] = tested on: SF-539 CNS
[15] = tested on: BT-549 breast
[16] = tested on: SF-268 CNS
[17] = tested on: MDA-MB-435 melanoma
[18] = tested on: HS 578T breast
[19] = tested on: NCI-H23 lung
[20] = tested on: MDA-MB-231 breast
[21] = tested on: SW-620 colon
[22] = tested on: IGROV1 ovarian
[23] = tested on: UACC-62 melanoma
[24] = tested on: SN12C renal
[25] = tested on: A498 renal
[26] = tested on: T-47D breast
[27] = tested on: TK-10 renal
[28] = tested on: NCI-H322M lung
[29] = tested on: A549 NSCLC
[30] = tested on: HCT-116 colon
[31] = tested on: K-562 leukemia
[32] = tested on: SNB-75 CNS
[33] = tested on: COLO 205 colon
[34] = tested on: U251 glioblastoma
[35] = tested on: HOP-92 NSCLC
[36] = tested on: SK-OV-3 ovarian
[37] = tested on: HL-60(TB) leukemia
[38] = tested on: HT29 colon
[39] = tested on: SK-MEL-28 melanoma
[40] = tested on: HCT-15 colon
[41] = tested on: NCI-H460 NSCLC
[42] = tested on: UACC-257 melanoma
[43] = tested on: M14 melanoma
[44] = tested on: LOX IMVI melanoma
[45] = tested on: UO-31 renal
[46] = tested on: HCC-2998 colon
[47] = tested on: CAKI-1 renal
[48] = tested on: SF-295 CNS
[49] = tested on: PC-3 prostate
[50] = tested on: EKVX NSCLC
[51] = tested on: OVCAR-3 ovarian
[52] = tested on: NCI-H522 lung
[53] = tested on: RPMI-8226 leukemia
[54] = tested on: MALME-3M melanoma
[55] = tested on: ACHN renal
[56] = tested on: CCRF-CEM leukemia
[57] = tested on: SNB-19 CNS
[58] = tested on: OVCAR-4 ovarian
[59] = tested on: OVCAR-5 ovarian

Molecule CC(=O)N1c2ccc(-c3ccc(C(=O)O)cc3)cc2[C@H](Nc2ccc(Cl)cc2)C[C@@H]1C has a GI50 [1] of 74.9 nM, a TGI [1] of 24.2 µM and a GI50 [2] of 77 nM. The TGI [2] was 3.1 µM, the GI50 [3] was 19.5 nM and the TGI [3] was 10.2 µM. It also gave a GI50 [4] of less than 10 nM, a TGI [4] of 50.2 nM and a GI50 [5] of 638 nM. For the same molecule, the TGI [5] was greater than 100 µM, the GI50 [6] was 193 nM and the TGI [6] was 15.5 µM. The GI50 [7] was 0.129 µM, the TGI [7] was 3.3 µM and the GI50 [8] was 702 nM. For the same molecule, the TGI [8] was 20.8 µM, the GI50 [9] was 47.8 nM and the TGI [9] was 7.2 µM. It also gave a GI50 [10] of 54.1 nM, a TGI [10] of 2060 nM and a GI50 [11] of 208 nM. It also gave a TGI [11] of 13.1 µM, a GI50 [12] of 57.4 nM and a TGI [12] of 2.51 µM. It also gave a GI50 [13] of 171 nM, a TGI [13] of 10.5 µM and a GI50 [14] of 314 nM. It also gave a TGI [14] of 11.2 µM, a GI50 [15] of 43 nM and a TGI [15] of 11.4 µM. For the same molecule, the GI50 [16] was 386 nM, the TGI [16] was 19.5 µM and the GI50 [17] was 669 nM. It also gave a TGI [17] of 42.6 µM, a GI50 [18] of 20.7 nM and a TGI [18] of 0.185 µM. It also gave a GI50 [19] of 137 nM, a TGI [19] of 11.4 µM and a GI50 [20] of 61.8 nM. It also gave a TGI [20] of 75.2 µM, a GI50 [21] of 2990 nM and a TGI [21] of 22 µM. The GI50 [22] was 75.6 nM, the TGI [22] was 18.8 µM and the GI50 [23] was 22.2 nM. It also gave a TGI [23] of 2.74 µM, a GI50 [24] of 108 nM and a TGI [24] of 20.9 µM. For the same molecule, the GI50 [25] was 239 nM, the TGI [25] was 13.5 µM and the GI50 [26] was 240 nM. For the same molecule, the TGI [26] was 12.4 µM, the GI50 [27] was 48.6 nM and the TGI [27] was 2.65 µM. For the same molecule, the GI50 [28] was 201 nM, the TGI [28] was 13.3 µM and the GI50 [29] was 456 nM. For the same molecule, the TGI [29] was 18.6 µM, the GI50 [30] was 180 nM and the TGI [30] was 12.8 µM. It also gave a GI50 [31] of 84.2 nM, a TGI [31] of 16.8 µM and a GI50 [32] of 213 nM. For the same molecule, the TGI [32] was 49.3 µM, the GI50 [33] was 146 nM and the TGI [33] was 10.9 µM. The GI50 [34] was 488 nM, the TGI [34] was 21.7 µM and the GI50 [35] was 49.7 nM. The TGI [35] was 16.4 µM, the GI50 [36] was 101 nM and the TGI [36] was 14.1 µM. For the same molecule, the GI50 [37] was less than 10 nM, the TGI [37] was 25.9 nM and the GI50 [38] was 73.3 nM. For the same molecule, the TGI [38] was 15.7 µM, the GI50 [39] was 0.0895 µM and the TGI [39] was 15 µM. It also gave a GI50 [40] of 53.5 nM, a TGI [40] of 10.3 µM and a GI50 [41] of 467 nM. The TGI [41] was 15.4 µM, the GI50 [42] was 192 nM and the TGI [42] was 53.6 µM. For the same molecule, the GI50 [43] was 144 nM, the TGI [43] was 15.5 µM and the GI50 [44] was 48.1 nM. The TGI [44] was 0.209 µM, the GI50 [45] was 200 nM and the TGI [45] was 13 µM. For the same molecule, the GI50 [46] was 62.8 nM, the TGI [46] was 0.676 µM and the GI50 [47] was 31.3 nM. The TGI [47] was 2.56 µM, the GI50 [48] was 0.975 µM and the TGI [48] was 17.3 µM. It also gave a GI50 [49] of 369 nM, a TGI [49] of 20.6 µM and a GI50 [50] of 1390 nM. For the same molecule, the TGI [50] was 46.4 µM, the GI50 [51] was 57 nM and the TGI [51] was 11.3 µM. For the same molecule, the GI50 [52] was 24.3 nM, the TGI [52] was 1310 nM and the GI50 [53] was less than 10 nM. For the same molecule, the TGI [53] was 108 nM, the GI50 [54] was 30.9 nM and the TGI [54] was 1.6 µM. The GI50 [55] was 558 nM, the TGI [55] was 19.7 µM and the GI50 [56] was 60.5 nM. The TGI [56] was 8.77 µM, the GI50 [57] was 0.166 µM and the TGI [57] was 27 µM. The GI50 [58] was 104 nM and the TGI [58] was 0.659 µM.
C=CC(=O)Nc1cccc(Nc2nc(Nc3ccc(N4CCN(C(C)=O)CC4)cc3OC)ncc2C(F)(F)F)c1 was tested, and the GI50 [1] was 2610 nM, the TGI [1] was 13.7 µM and the GI50 [2] was 2830 nM. It also gave a TGI [2] of 10.2 µM, a GI50 [3] of 905 nM and a TGI [3] of 5.28 µM. The GI50 [5] was 3510 nM, the TGI [5] was 14 µM and the GI50 [6] was 2160 nM. It also gave a TGI [6] of 14.4 µM, a GI50 [7] of 10.6 µM and a TGI [7] of 22.7 µM. The GI50 [8] was 1880 nM, the TGI [8] was 6.6 µM and the GI50 [9] was 1970 nM. For the same molecule, the TGI [9] was 12.4 µM, the GI50 [10] was 521 nM and the TGI [10] was 1870 nM. The GI50 [11] was 1830 nM, the TGI [11] was 8.62 µM and the GI50 [12] was 1380 nM. It also gave a TGI [12] of 6.51 µM, a GI50 [13] of 157 nM and a TGI [13] of 0.81 µM. The GI50 [14] was 3460 nM, the TGI [14] was 14.1 µM and the GI50 [15] was 2870 nM. It also gave a TGI [15] of 10.2 µM, a GI50 [16] of 268 nM and a TGI [16] of 2.24 µM. For the same molecule, the GI50 [17] was 4730 nM, the TGI [17] was 17.1 µM and the GI50 [18] was 1900 nM. It also gave a TGI [18] of 6.58 µM, a GI50 [19] of 1940 nM and a TGI [19] of 6.87 µM. For the same molecule, the GI50 [20] was 3460 nM, the TGI [20] was 17.6 µM and the GI50 [21] was 1750 nM. The TGI [21] was 3.45 µM, the GI50 [22] was 493 nM and the TGI [22] was 2.09 µM. The GI50 [23] was 2360 nM, the TGI [23] was 11.8 µM and the GI50 [59] was 2330 nM. The TGI [59] was 14.6 µM, the GI50 [24] was 2070 nM and the TGI [24] was 9.13 µM. The GI50 [25] was 1810 nM, the TGI [25] was 9.76 µM and the GI50 [26] was 1440 nM. For the same molecule, the TGI [26] was 5.28 µM, the GI50 [27] was 1620 nM and the TGI [27] was 4.78 µM. It also gave a GI50 [28] of 1220 nM, a TGI [28] of 3.35 µM and a GI50 [29] of 597 nM. The TGI [29] was 4.84 µM, the GI50 [30] was 3040 nM and the TGI [30] was 13.1 µM. For the same molecule, the GI50 [31] was 3760 nM, the TGI [31] was 13.5 µM and the GI50 [32] was 2980 nM. It also gave a TGI [32] of 12.2 µM, a GI50 [33] of 1340 nM and a TGI [33] of 3.19 µM. The GI50 [34] was 5040 nM, the TGI [34] was 17.2 µM and the GI50 [35] was 2060 nM. For the same molecule, the TGI [35] was 7.69 µM, the GI50 [36] was 2030 nM and the TGI [36] was 9.89 µM. It also gave a GI50 [37] of 1400 nM, a TGI [37] of 2740 nM and a GI50 [38] of 1800 nM. It also gave a TGI [38] of 5.07 µM, a GI50 [39] of 10.2 µM and a TGI [39] of 23.9 µM. For the same molecule, the GI50 [40] was 2170 nM, the TGI [40] was 8.75 µM and the GI50 [41] was 2710 nM. The TGI [41] was 7.5 µM, the GI50 [42] was 2540 nM and the TGI [42] was 11.1 µM. The GI50 [43] was 1940 nM, the TGI [43] was 8.31 µM and the GI50 [44] was 2640 nM. The TGI [44] was 10.4 µM, the GI50 [45] was 2260 nM and the TGI [45] was 9.61 µM. It also gave a GI50 [46] of 1400 nM, a TGI [46] of 8.2 µM and a GI50 [47] of 1910 nM. For the same molecule, the TGI [47] was 6.28 µM, the GI50 [48] was 6.74 µM and the TGI [48] was 19.8 µM. The GI50 [49] was 4330 nM, the TGI [49] was 15.9 µM and the GI50 [50] was 1070 nM. For the same molecule, the TGI [50] was 3.72 µM, the GI50 [51] was 2050 nM and the TGI [51] was 5.91 µM. It also gave a GI50 [52] of 288 nM, a TGI [52] of 1550 nM and a GI50 [53] of 1890 nM. It also gave a TGI [53] of 5160 nM, a GI50 [54] of 2390 nM and a TGI [54] of 8.83 µM. It also gave a GI50 [55] of 1940 nM, a TGI [55] of 19 µM and a GI50 [56] of 1640 nM. For the same molecule, the TGI [56] was 3.22 µM, the GI50 [57] was 8.32 µM and the TGI [57] was 20.9 µM. For the same molecule, the GI50 [58] was 4330 nM and the TGI [58] was 34.6 µM.
